EPA's ToxRefDB 2

Tests used:
[1] = system: mouse; conditions: Prenatal developmental toxicity study, cd1, Oral, Gavage/Intubation, dose end: 15 GD
[2] = system: rat; conditions: Subchronic oral toxicity in rodents, fischer, Feed, dose end: 45 day, group: systemic, systemic / in life observation / body weight / body weight gain
[3] = system: rat; conditions: Carcinogenicity; fischer; Oral; Feed; dose end: 78 week; group: systemic; systemic / in life observation / body weight / body weight gain + systemic / pathology microscopic / peritoneum / neoplasm nos + systemic / …
[4] = system: mouse; conditions: Subchronic oral toxicity in rodents, b6c3f1, Feed, dose end: 45 day, group: systemic, systemic / in life observation / mortality / mortality
[5] = system: mouse; conditions: Carcinogenicity, b6c3f1, Oral, Feed, dose end: 78 week, group: systemic
[6] = system: dog; conditions: Subchronic oral toxicity in nonrodent, beagle, Gavage/Intubation, dose end: 13 week, group: systemic, systemic / hematology / mean corpuscular hemoglobin (mch) / mean corpuscular hemoglobin (mch) + systemic / hematology / mean corpuscular …
[7] = system: mouse; conditions: Combined chronic toxicity/carcinogenicity, b6c3f1, Oral, Feed, dose end: 104 week, group: systemic
[8] = system: rat; conditions: Subchronic oral toxicity in rodents, other, Feed, dose end: 90 day, group: systemic
[9] = system: mouse; conditions: Subchronic oral toxicity in rodents, b6c3f1, Feed, dose end: 15 week
[10] = system: rat; conditions: Prenatal developmental toxicity study, sprague dawley, Oral, Gavage/Intubation, dose end: 15 GD
[11] = system: rat; conditions: Combined chronic toxicity/carcinogenicity, sprague dawley, Oral, Feed, dose end: 104 week, group: systemic
[12] = system: rat; conditions: Multigenerational reproductive toxicity study, sprague dawley, Oral, Feed, dose end: 2 generation
[13] = system: dog; conditions: Chronic toxicity; beagle; Oral; Gavage/Intubation; dose end: 52 week; group: systemic; systemic / clinical chemistry / albumin / albumin + systemic / clinical chemistry / alkaline phosphatase (alp/alk) / alkaline phosphatase (…
[14] = system: rabbit; conditions: Prenatal developmental toxicity study, new zealand white, Oral, Gavage/Intubation, dose end: 19 GD
[15] = system: rat; conditions: Multigenerational reproductive toxicity study, sprague dawley, Oral, Gavage/Intubation, dose end: 2 generation
[16] = system: rat; conditions: Subchronic oral toxicity in rodents, sprague dawley, Gavage/Intubation, dose end: 90 day, group: systemic
[17] = system: rat; conditions: Prenatal developmental toxicity study, sprague dawley, Oral, Gavage/Intubation, dose end: 20 GD
[18] = system: rat; conditions: Subchronic oral toxicity in rodents, sprague dawley, Gavage/Intubation, dose end: 90 day, group: systemic; remark: listed apart in the source
[19] = system: rat; conditions: Multigenerational reproductive toxicity study, sprague dawley, Oral, Gavage/Intubation, dose end: 1 generation
[20] = group: developmental, developmental / developmental malformation / bone / [other] + developmental / developmental malformation / general / [other] + systemic / in…
[21] = group: maternal, reproductive / reproductive performance / implantations / implantations + reproductive / reproductive performance / resorptions / …
[22] = group: maternal, systemic / pathology gross / spleen / enlarged
[23] = systemic / in life observation / body weight / body weight
[24] = systemic / in life observation / body weight / body weight + systemic / in life observation / mortality / mortality
[25] = systemic / clinical chemistry / albumin / albumin + systemic / clinical chemistry / alkaline phosphatase (alp/alk) / alkaline phosphatase (…
[26] = systemic / organ weight / kidney / relative to body weight + systemic / organ weight / kidney / absolute
[27] = systemic / in life observation / body weight / body weight gain
[28] = systemic / in life observation / body weight / body weight gain + systemic / clinical chemistry / albumin / albumin + systemic / clinical …
[29] = group: maternal, reproductive / reproductive performance / fertility / fertility
[30] = group: systemic, systemic / clinical chemistry / alkaline phosphatase (alp/alk) / alkaline phosphatase (alp/alk) + systemic / hematology / hematocrit (hct…
[31] = group: systemic, systemic / in life observation / food consumption / food consumption
[32] = group: developmental, developmental / developmental malformation / bone / absent
[33] = group: developmental, systemic / in life observation / body weight / fetal weight
[34] = group: maternal, systemic / in life observation / body weight / body weight gain
[35] = group: offspring, systemic / in life observation / body weight / offspring (pup) weight gain + systemic / in life observation / body weight / offspring (pup) …
[36] = group: parental, systemic / in life observation / body weight / body weight + systemic / in life observation / body weight / body weight gain
[37] = group: reproductive, reproductive / offspring survival early / litter size / litter size
[38] = group: reproductive, reproductive / offspring survival early / litter size / litter size + reproductive / reproductive performance / fertility / fertility
[39] = group: developmental, systemic / in life observation / body weight / fetal weight + developmental / developmental malformation / bone / misshapen + developmental…
[40] = group: maternal, reproductive / reproductive performance / postimplantation loss / postimplantation loss + reproductive / reproductive performance / …
[41] = group: offspring, systemic / organ weight / spleen / absolute
[42] = group: offspring, systemic / organ weight / spleen / absolute + systemic / pathology microscopic / kidney / edema + systemic / pathology microscopic / kidney…
[43] = group: parental, systemic / in life observation / body weight / body weight + systemic / in life observation / body weight / body weight gain + systemic / in…
[44] = systemic / clinical chemistry / albumin / albumin + systemic / clinical chemistry / protein / protein + systemic / pathology microscopic / …
[45] = systemic / organ weight / spleen / absolute + systemic / organ weight / spleen / relative to body weight + systemic / organ weight / spleen…
[46] = group: maternal, systemic / in life observation / body weight / body weight + systemic / in life observation / body weight / body weight gain + systemic / in…
[47] = systemic / clinical chemistry / peroxisomal beta-oxidation analysis / peroxisomal beta-oxidation analysis + systemic / organ weight / liver…
[48] = systemic / hematology / neutrophils / neutrophils
[49] = group: offspring, systemic / in life observation / body weight / offspring (pup) weight
[50] = group: parental, systemic / in life observation / body weight / body weight gain + systemic / in life observation / clinical signs / fur (altered appearance…

SMILES: Nc1ccc(S(=O)(=O)c2ccc(N)cc2)cc1 [Dapsone]
- LEL [1, 20]: 200 mg/kg/day
- LOAEL [1, 20]: > 200 mg/kg/day
- NEL [1, 20]: 100 mg/kg/day
- NOAEL [1, 20]: ≥ 200 mg/kg/day
- LOAEL [1, 21]: > 200 mg/kg/day
- NOAEL [1, 21]: ≥ 200 mg/kg/day
- LEL [1, 22]: 50 mg/kg/day
- NEL [1, 22]: < 50 mg/kg/day
- LEL [2]: 60 mg/kg/day
- LOAEL [2]: 60 mg/kg/day
- NEL [2]: < 60 mg/kg/day
- NOAEL [2]: < 60 mg/kg/day
- LEL [3]: 30 mg/kg/day
- LOAEL [3]: > 60 mg/kg/day
- NEL [3]: < 30 mg/kg/day
- NOAEL [3]: ≥ 60 mg/kg/day
- LEL [4]: 300 mg/kg/day
- LOAEL [4]: > 7500 mg/kg/day
- NEL [4]: < 300 mg/kg/day
- NOAEL [4]: ≥ 7500 mg/kg/day
- LOAEL [5, 23]: 75 mg/kg/day
- NOAEL [5, 23]: < 75 mg/kg/day
- LEL [5, 24]: 75 mg/kg/day
- NEL [5, 24]: < 75 mg/kg/day

SMILES: CON(C)C(=O)Nc1ccc(Oc2ccc3c(c2)OC(C)(OC)CC3(C)C)cc1 (configuration not stated) [Metobenzuron]
- LEL [6]: 25 mg/kg/day
- LOAEL [6]: 25 mg/kg/day
- NEL [6]: 5 mg/kg/day
- NOAEL [6]: 5 mg/kg/day
- LOAEL [7, 25]: 139 mg/kg/day
- NOAEL [7, 25]: 41.1 mg/kg/day
- LEL [7, 26]: 6.9 mg/kg/day
- NEL [7, 26]: < 6.9 mg/kg/day
- LEL [8, 27]: 7.29 mg/kg/day
- LOAEL [8, 27]: 45 mg/kg/day
- NEL [8, 27]: < 7.29 mg/kg/day
- NOAEL [8, 28]: 6.05 mg/kg/day
- LEL [9, 29]: 308 mg/kg/day
- LOAEL [9, 29]: > 308 mg/kg/day
- NEL [9, 29]: 91 mg/kg/day
- NOAEL [9, 29]: ≥ 308 mg/kg/day
- LOAEL [9, 30]: 91 mg/kg/day
- NOAEL [9, 30]: 20 mg/kg/day
- LEL [9, 31]: 25 mg/kg/day
- NEL [9, 31]: < 25 mg/kg/day
- LEL [10, 32]: 25 mg/kg/day
- NEL [10, 32]: < 25 mg/kg/day
- LOAEL [10, 33]: 50 mg/kg/day
- NOAEL ([10]; group: developmental, systemic / in life observation / body weight / fetal weight + developmental / developmental malformation / bone / absent + developmental / …): 25 mg/kg/day
- LEL [10, 34]: 25 mg/kg/day
- LOAEL [10, 34]: 25 mg/kg/day
- NEL [10, 34]: < 25 mg/kg/day
- NOAEL [10, 34]: < 25 mg/kg/day
- LEL [11, 23]: 4.4 mg/kg/day
- LOAEL [11, 27]: 23.1 mg/kg/day
- NEL [11, 28]: 1.5 mg/kg/day
- NOAEL [11, 28]: 4.4 mg/kg/day
- LOAEL ([12]; group: offspring, systemic / in life observation / body weight / offspring (pup) weight gain): 18.8 mg/kg/day
- LEL [12, 35]: 18.8 mg/kg/day
- NEL [12, 35]: 3.75 mg/kg/day
- NOAEL [12, 35]: 3.75 mg/kg/day
- LEL [12, 36]: 18.8 mg/kg/day
- LOAEL [12, 36]: 37.5 mg/kg/day
- NEL [12, 36]: 3.75 mg/kg/day
- NOAEL [12, 36]: 18.8 mg/kg/day
- LEL [12, 37]: 18.8 mg/kg/day
- LOAEL [12, 37]: 18.8 mg/kg/day
- NEL [12, 38]: 3.75 mg/kg/day
- NOAEL [12, 38]: 3.75 mg/kg/day
- LEL [13]: 75 mg/kg/day
- LOAEL [13]: 75 mg/kg/day
- NEL [13]: 5 mg/kg/day
- NOAEL [13]: 5 mg/kg/day
- LOAEL [14, 33]: 100 mg/kg/day
- LEL [14, 39]: 100 mg/kg/day
- NEL [14, 39]: 50 mg/kg/day
- NOAEL [14, 39]: 50 mg/kg/day
- LEL [14, 40]: 100 mg/kg/day
- LOAEL [14, 40]: 100 mg/kg/day
- NEL [14, 40]: 50 mg/kg/day
- NOAEL [14, 40]: 50 mg/kg/day

SMILES: O=S(=O)([O-])C(F)(F)C(F)(F)C(F)(F)C(F)(F)F.[K+] [PFBS-K]
- LEL [15, 41]: 30 mg/kg/day
- NEL [15, 41]: < 30 mg/kg/day
- LOAEL [15, 42]: > 1000 mg/kg/day
- NOAEL [15, 42]: ≥ 1000 mg/kg/day
- LOAEL [15, 43]: > 1000 mg/kg/day
- NEL [15, 43]: 100 mg/kg/day
- NOAEL [15, 43]: ≥ 1000 mg/kg/day
- LEL ([15]; group: parental, systemic / pathology microscopic / kidney / edema + systemic / pathology microscopic / kidney / hyperplasia + systemic / organ weight / …): 300 mg/kg/day
- LOAEL [16, 44]: > 600 mg/kg/day
- NOAEL [16, 44]: ≥ 600 mg/kg/day
- LEL [16, 45]: 60 mg/kg/day
- NEL [16, 45]: < 60 mg/kg/day

SMILES: O=C([O-])C(F)(F)C(F)(F)C(F)(F)C(F)(F)C(F)(F)F.[Na+] [Sodium perfluorohexanoate]
- LEL [17, 33]: 500 mg/kg/day
- LOAEL [17, 33]: > 500 mg/kg/day
- NEL [17, 33]: 100 mg/kg/day
- NOAEL [17, 33]: ≥ 500 mg/kg/day
- LEL [17, 46]: 500 mg/kg/day
- LOAEL [17, 46]: > 500 mg/kg/day
- NEL [17, 46]: 100 mg/kg/day
- NOAEL [17, 46]: ≥ 500 mg/kg/day
- LOAEL [18, 47]: > 500 mg/kg/day
- NOAEL [18, 47]: ≥ 500 mg/kg/day
- LEL [18, 48]: 20 mg/kg/day
- NEL [18, 48]: < 20 mg/kg/day
- LEL [19, 49]: 500 mg/kg/day
- LOAEL [19, 49]: > 500 mg/kg/day
- NEL [19, 49]: 100 mg/kg/day
- NOAEL [19, 49]: ≥ 500 mg/kg/day
- LEL ([19]; group: parental, systemic / in life observation / body weight / body weight gain): 100 mg/kg/day
- LOAEL [19, 50]: > 500 mg/kg/day
- NEL [19, 50]: 20 mg/kg/day
- NOAEL [19, 50]: ≥ 500 mg/kg/day
